Test results as given in patent US8501238B2, “Anti-infective agents and uses thereof” (priority 2007, dated 2013).

Experiments:
[1] = target: T1, HCV polymerase 1A (Δ21 NS5B) (Hepatitis C virus genotype 1a, UniProt P27958); assay: HCV Polymerase Inhibition Assay (1a); assay type: biochemical
T1 construct: 20 to 50nM Δ21 NS5B
Method: The reaction was initiated by the addition of 20μM CTP, 20μM ATP, 1μM ^3H-UTP (10mCi/umol), 5nM template RNA and 0.1 U/μl RNase inhibitor (RNasin, Promega), and allowed to proceed for 2 to 4h at room temperature. Reaction volume was 50μl. The reaction was terminated by the addition of 1 volume of 4mM spermine in 10mM Tris-Cl pH 8.0, 1mM EDTA. After incubation for at least 15 min at room temperature, the precipitated RNA was captured by filtering through a GF/B filter (Millipore) in a 96 well format. The filter plate was washed three times with 200μl each of 2mM spermine, 10mM Tris-Cl pH 8.0, lmM EDTA, and 2 times with ethanol. After air-drying, 30μl of Microscint 20 scintillation cocktail (Packard) was added to each well, and the retained cpm were determined by scintillation counting. […] Retained cpm were plotted vs. inhibitor concentration and fit to equation 1 using non-linear regression (ref. 1) to obtain the IC50 values: Retained cpm=A[sqrt{(IC50+It−Et)^2+4*IC50*Et}−([…])]
Ref. Morrison, J. F. and S. R. Stone. […] Approaches to the study and analysis of the inhibition of enzymes by slow- and tight-binding inhibitors. Comments Mol. Cell. Biophys.
(§1) The sequence of the template RNA used was: 5′-[…]-3′

[2] = target: T2, HCV polymerase 1B (Δ21 NS5B) (Hepatitis C virus genotype 1b, UniProt P26663); assay: biochemical
T2 construct: 20 to 50nM Δ21 NS5B
Method: Either two-fold serial dilutions (fractional inhibition assay) or a narrower range of dilutions spanning the IC50 of the inhibitor (tight binding assay) of the inhibitors were incubated with 20mM Tris-Cl pH 7.4, 2 mM MnCl2, 1 mM dithiothreitol, 1 mM ethylene diamine tetraacetic acid (EDTA), 60 to 125μM GTP and 20 to 50nM Δ21 NS5B (HCV Strain 1B (BK, Genbank accession number M58335, or H77, Genbank accession number AF011751)) for 15min at room temperature. The reaction was initiated by the addition of 20μM CTP, 20μM ATP, 1μM ^3H-UTP (10mCi/umol), 5nM template RNA and 0.1 U/μl RNase inhibitor (RNasin, Promega), and allowed to proceed for 2 to 4h at room temperature. Reaction volume was 50μl. The reaction was terminated by the addition of 1 volume of 4mM spermine in 10mM Tris-Cl pH 8.0, 1mM EDTA. After incubation for at least 15 min at room temperature, the precipitated RNA was captured by filtering through a GF/B filter (Millipore) in a 96 well format. The filter plate was washed three times with 200μl each of 2mM spermine, 10mM Tris-Cl pH 8.0, lmM EDTA, and 2 times with ethanol. After air-drying, 30μl of Microscint 20 scintillation cocktail (Packard) was added to each well, and the retained cpm were determined by scintillation counting. […] Retained cpm were plotted vs. inhibitor concentration and fit to equation 1 using non-linear regression (ref. 1) to obtain the IC50 values: Retained cpm=A[sqrt{(IC50+It−Et)^2+4*IC50*Et}−([…])]
Ref. Morrison, J. F. and S. R. Stone. 1985. Approaches to the study and analysis of the inhibition of enzymes by slow- and tight-binding inhibitors. Comments Mol. Cell. Biophys. 2: 347-368.
as §1

[3] = system: genotype 1a-H77 subgenomic replicon cell line; assay: microbe, parasite or virus in culture; assay type: cell-based, HCV; settings: Hepatitis C virus, 72 h, read-out: EC50 1a
[4] = system: genotype 1b-Con1 subgenomic replicon cell line; assay: microbe, parasite or virus in culture; assay type: cell-based, HCV; settings: Hepatitis C virus, 72 h, read-out: EC50 1b

T2 sequence (P26663 2420-2989, stated change not applied): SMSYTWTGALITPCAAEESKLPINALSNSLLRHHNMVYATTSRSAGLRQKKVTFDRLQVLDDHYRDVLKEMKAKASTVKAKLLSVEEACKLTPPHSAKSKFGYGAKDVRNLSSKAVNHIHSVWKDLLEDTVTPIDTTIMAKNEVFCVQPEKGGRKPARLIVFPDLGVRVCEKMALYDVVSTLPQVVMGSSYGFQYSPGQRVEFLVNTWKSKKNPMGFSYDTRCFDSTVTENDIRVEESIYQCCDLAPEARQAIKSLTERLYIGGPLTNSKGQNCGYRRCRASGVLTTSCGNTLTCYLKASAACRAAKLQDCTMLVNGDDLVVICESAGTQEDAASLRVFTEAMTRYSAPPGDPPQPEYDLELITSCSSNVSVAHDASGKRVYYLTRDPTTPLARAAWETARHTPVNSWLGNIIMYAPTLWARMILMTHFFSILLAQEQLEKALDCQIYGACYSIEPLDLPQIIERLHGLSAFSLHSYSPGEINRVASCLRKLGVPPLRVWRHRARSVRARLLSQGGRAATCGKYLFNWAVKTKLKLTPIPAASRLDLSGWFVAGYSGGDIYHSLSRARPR
T1 sequence (P27958 2421-2990, stated change not applied): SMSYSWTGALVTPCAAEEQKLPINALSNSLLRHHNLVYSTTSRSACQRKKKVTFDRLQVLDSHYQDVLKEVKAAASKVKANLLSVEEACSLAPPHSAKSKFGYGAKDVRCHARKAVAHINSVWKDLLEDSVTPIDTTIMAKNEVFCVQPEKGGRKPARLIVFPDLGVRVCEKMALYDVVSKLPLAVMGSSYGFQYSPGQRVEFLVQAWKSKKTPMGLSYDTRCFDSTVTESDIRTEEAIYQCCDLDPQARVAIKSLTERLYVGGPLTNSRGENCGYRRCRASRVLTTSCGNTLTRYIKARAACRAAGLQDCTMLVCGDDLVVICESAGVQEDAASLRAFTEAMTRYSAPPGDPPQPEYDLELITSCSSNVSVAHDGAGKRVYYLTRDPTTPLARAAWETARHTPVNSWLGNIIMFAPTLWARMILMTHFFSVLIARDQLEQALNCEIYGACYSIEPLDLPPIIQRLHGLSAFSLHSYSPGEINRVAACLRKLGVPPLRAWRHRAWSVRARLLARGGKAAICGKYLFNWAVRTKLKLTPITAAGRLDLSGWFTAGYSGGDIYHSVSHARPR

SMILES	IC50 [1]	IC50 [2]	melting point	EC50 [3]	EC50 [4]
COc1c(-c2ccc3cc(NS(C)(=O)=O)ccc3c2)cc(-n2ccc(=O)[nH]c2=O)cc1C(C)(C)C(=O)O [IB-L0-2.77, 2-(5-(2,4-dioxo-3,4-dihydropyrimidin-1(2H)-yl)-2-methoxy-3-(6-(methylsulfonamido)naphthalen-2-yl)phenyl)-2-methylpropanoic acid]	> 1000 nM	> 1000 nM	> 300 °C	–	–
CCOc1c(-c2ccc3cc(NS(C)(=O)=O)ccc3c2)cc(-n2ccc(=O)[nH]c2=O)cc1C(C)(C)C [IB-L0-2.23, N-(6-(3-tert-butyl-5-(2,4-dioxo-3,4-dihydropyrimidin-1(2H)-yl)-2-ethoxyphenyl)naphthalen-2-yl)methanesulfonamide]	10 to 100 nM	< 10 nM	196 to 202 °C	100 to 1000 nM	10 to 100 nM
COc1c(-c2ccc3cc(NS(C)(=O)=O)ccc3c2)cc(-n2ccc(=O)[nH]c2=O)cc1C(F)(F)C(F)(F)F [IB-L0-2.60, N-(6-(5-(2,4-dioxo-3,4-dihydropyrimidin-1(2H)-yl)-2-methoxy-3-(perfluoroethyl)phenyl)naphthalen-2-yl)methanesulfonamide]	< 10 nM	10 to 100 nM	162 to 165 °C	100 to 1000 nM	10 to 100 nM
COc1c(C#C[Si](C)(C)C)cc(-n2ccc(=O)[nH]c2=O)cc1-c1ccc2cc(NS(C)(=O)=O)ccc2c1 [IB-L0-2.78, N-(6-(5-(2,4-dioxo-3,4-dihydropyrimidin-1(2H)-yl)-2-methoxy-3-((trimethylsilyl)ethynyl)phenyl)naphthalen-2-yl)methanesulfonamide]	> 1000 nM	> 1000 nM	175 to 178 °C	–	–
COc1c(-c2ccc3c(C)coc3c2)cc(-n2ccc(=O)[nH]c2=O)cc1C(C)(C)C [IB-L0-2.42, 1-(3-tert-butyl-4-methoxy-5-(3-methylbenzofuran-6-yl)phenyl)-pyrimidine-2,4(1H,3H)-dione]	100 to 1000 nM	100 to 1000 nM	–	100 to 1000 nM	100 to 1000 nM
COc1c(-c2nc3cc(NS(C)(=O)=O)ccc3o2)cc(N2CCC(=O)NC2=O)cc1C(C)(C)C [IA-L0-2.8, N-(2-(3-tert-butyl-5-(2,4-dioxotetrahydropyrimidin-1(2H)-yl)-2-methoxyphenyl)benzo[d]oxazol-5-yl)methanesulfonamide]	10 to 100 nM	10 to 100 nM	–	100 to 1000 nM	10 to 100 nM
COc1c(-c2ccc3ccccc3c2)cc(-n2ccc(=O)[nH]c2=O)cc1C(C)(C)C [IB-L0-2.1, 1-(3-tert-butyl-4-methoxy-5-(naphthalen-2-yl)phenyl)pyrimidine-2,4(1H,3H)-dione]	100 to 1000 nM	100 to 1000 nM	–	> 1000 nM	100 to 1000 nM
COc1c(-c2ccc3cc(NS(C)(=O)=O)ccc3c2)cc(-n2ccc(=O)[nH]c2=O)cc1C(F)(F)F [IB-L0-2.56, N-(6-(5-(2,4-dioxo-3,4-dihydropyrimidin-1(2H)-yl)-2-methoxy-3-(trifluoromethyl)phenyl)naphthalen-2-yl)methanesulfonamide]	< 10 nM	10 to 100 nM	–	100 to 1000 nM	< 10 nM
COc1c(-c2ccc3c(c2)/C(=N/NS(C)(=O)=O)CC3)cc(-n2ccc(=O)[nH]c2=O)cc1-c1ccco1 [IB-L0-2.55, (E)-N′-(6-(5-(2,4-dioxo-3,4-dihydropyrimidin-1(2H)-yl)-3-(furan-2-yl)-2-methoxyphenyl)-2,3-dihydro-1H-inden-1-ylidene)methanesulfonohydrazide]	< 10 nM	10 to 100 nM	–	10 to 100 nM	< 10 nM
COc1c(-c2ccc3cc(NS(C)(=O)=O)ccc3c2)cc(-n2ccc(=O)[nH]c2=O)cc1S(C)(=O)=O [IB-L0-2.68, N-(6-(5-(2,4-dioxo-3,4-dihydropyrimidin-1(2H)-yl)-2-methoxy-3-(methylsulfonyl)phenyl)naphthalen-2-yl)methanesulfonamide]	10 to 100 nM	10 to 100 nM	–	> 1000 nM	100 to 1000 nM
COC(=O)C(C)(C)c1cc(-n2ccc(=O)[nH]c2=O)cc(-c2ccc3cc(NS(C)(=O)=O)ccc3c2)c1OC [IB-L0-2.70, methyl 2-(5-(2,4-dioxo-3,4-dihydropyrimidin-1(2H)-yl)-2-methoxy-3-(6-(methylsulfonamido)naphthalen-2-yl)phenyl)-2-methylpropanoate]	10 to 100 nM	100 to 1000 nM	–	> 1000 nM	100 to 1000 nM
COc1c(-c2ccc3c(c2)CC[C@@]3(F)CNS(C)(=O)=O)cc(-n2ccc(=O)[nH]c2=O)cc1C(C)(C)C [IB-L0-2.20, (S)-N-((5-(3-tert-butyl-5-(2,4-dioxo-3,4-dihydropyrimidin-1(2H)-yl)-2-methoxyphenyl)-1-fluoro-2,3-dihydro-1H-inden-1-yl)methyl)methanesulfonamide]	< 10 nM	10 to 100 nM	–	100 to 1000 nM	10 to 100 nM
COc1c(-c2ccc3nc(NS(C)(=O)=O)sc3c2)cc(-n2ccc(=O)[nH]c2=O)cc1C(C)(C)C [IB-L0-2.28, N-(6-(3-tert-butyl-5-(2,4-dioxo-3,4-dihydropyrimidin-1(2H)-yl)-2-methoxyphenyl)benzo[d]thiazol-2-yl)methanesulfonamide]	10 to 100 nM	10 to 100 nM	–	> 1000 nM	100 to 1000 nM
COc1c(-c2ccc3c(CNS(C)(=O)=O)noc3c2)cc(-n2ccc(=O)[nH]c2=O)cc1C(C)(C)C [IB-L0-2.45]	100 to 1000 nM	100 to 1000 nM	–	> 1000 nM	100 to 1000 nM
COc1c(-c2ccc3c(c2)CC=C3C(C)(C)NS(C)(=O)=O)cc(-n2ccc(=O)[nH]c2=O)cc1C(C)(C)C [IB-L0-2.41, N-(2-(6-(3-tert-butyl-5-(2,4-dioxo-3,4-dihydropyrimidin-1(2H)-yl)-2-methoxyphenyl)-1H-inden-3-yl)propan-2-yl)methanesulfonamide]	100 to 1000 nM	100 to 1000 nM	–	100 to 1000 nM	100 to 1000 nM
COc1c(-c2ccc3c(c2)CCN(NS(C)(=O)=O)C3)cc(-n2ccc(=O)[nH]c2=O)cc1C(C)(C)C [IB-L0-2.43, N-(6-(3-tert-butyl-5-(2,4-dioxo-3,4-dihydropyrimidin-1(2H)-yl)-2-methoxyphenyl)-3,4-dihydroisoquinolin-2(1H)-yl)methanesulfonamide]	100 to 1000 nM	100 to 1000 nM	–	> 1000 nM	100 to 1000 nM
CCC(C)(C)c1cc(-n2ccc(=O)[nH]c2=O)cc(-c2ccc3cc(NS(C)(=O)=O)ccc3c2)c1OC [IB-L0-2.52, N-(6-(5-(2,4-dioxo-3,4-dihydropyrimidin-1(2H)-yl)-2-methoxy-3-tert-pentylphenyl)naphthalen-2-yl)methanesulfonamide]	< 10 nM	10 to 100 nM	–	10 to 100 nM	< 10 nM
COc1c(-c2ccc3cc(NS(C)(=O)=O)ccc3c2)cc(-n2ccc(=O)[nH]c2=O)cc1-c1ccco1 [IB-L0-2.59, N-(6-(5-(2,4-dioxo-3,4-dihydropyrimidin-1(2H)-yl)-3-(furan-2-yl)-2-methoxyphenyl)naphthalen-2-yl)methanesulfonamide]	< 10 nM	10 to 100 nM	–	100 to 1000 nM	10 to 100 nM
